Source: patent US20040202638A1, “Substance capable of potentiating laminin 5 productivity in epidermal cells and utilization thereof” (priority 2001, published 2004)

Test system: laminin 5
Assay: Laminin 5 productivity evaluation test (keratinocyte culture, sandwich ELISA)
Type: cell-based, human
Conditions: for laminin 5 productivity potentiating action: result in words
Protocol: (1) Culture of Keratinocytes
Keratinocytes were isolated from the human preputium and cultured in an epidermal cell growth medium (KGM) having a low calcium concentration. To this culture medium were added bovine pituitary extract and EGF. After cultivation in KGM up to the fourth generation, the cells were treated with trypsin and EDTA to suspend adherent cells. Then, the culture was filtered to remove cell aggregates and thereby to obtain a homogeneous cell suspension. The cells were collected by centrifugation and resuspended in DMEM-F12 (2:I)-0.1% BSA so as to give a cell density of8×10^4 per ml. Each 0.5 ml of this cell suspension was added to 0.5 ml of the same medium containing a twofold concentration of each test sample. Using a 24-well plate, incubation was carried out at 37° C. for 24 hours. After completion of the incubation, the culture supernatant was transferred to an Eppendorf tube and centrifuged at 10,000 rpm for 5 minutes. The supernatant was transferred to a new tube and stored at −20° C. till the day for the determination of laminin 5. In order to solubilize laminin 5 in the cells and that bound to the culture plastics, a tris-HCl buffer (pH 7.4) containing various surfactants was added to each well and allowed to stand at −20° C. overnight. On the following day, the mixture was ultrasonicated and frozen again. On the following day, the mixture was thawed again and centrifuged at 10,000 rpm for 5 minutes. The supernatant was transferred to a tube and stored at −20° C. till the day for the determination of laminin 5.
(2) Determination of Laminin 5 by the Sandwich ELISA Method
Laminin 5 present in the culture supernatant and the cell layer was determined by the sandwich ELISA method. A monoclonal antibody (BM165) to the laminin α3 chain of laminin 5 was attached to a solid layer of a 96-well ELISA plate. In order to determine laminin 5 in sandwiched manner, a monoclonal antibody (6F12) to the laminin β3 chain was previously biotinized (b-6F12) and used as the other antibody. […] A sample was added to each of the wells in which a 3% gelatin-phosphate buffer solution containing b-6F12 had previously been placed. The final dilution ratio of the sample in the wells was ¼ for the culture medium and 1/10 for the cell layer. After the antigen-antibody reaction was carried out at 37° C. for 2 hours, the plate was washed, and an avidin HRP (horseradish peroxidase) solution was added thereto and reacted for a period of 30 minutes to 1 hour. After washing, a solution of ABTS serving as a substrate for HRP was added thereto and the absorbance at 405 nm was measured with an ELISA plate reader. A calibration curve was constructed over a range of 0 to 40 ng/ml.
The sum of the laminin 5 liberated into the culture medium and that remaining in the cell layer was calculated. The yield of laminin 5 was expressed by the relative value to that of the sample to which none of the plant extracts was added (control).

[1] = Table 3 (comparative example), concentration 1 μM
[2] = Table 3 (comparative example), concentration 10 μM
[3] = Table 3 (comparative example), concentration 100 μM

O=c1c(-c2ccc(O)cc2)coc2cc(O)ccc12 [Daidzein, 4′,7-dihydroxyisoflavone]
Laminin 5 yield (%) Relative to the Control [1]: 93% | Laminin 5 yield (%) Relative to the Control [2]: 99% | Laminin 5 yield (%) Relative to the Control [3]: 74% | laminin 5 productivity potentiating action: little or no laminin 5 productivity potentiating action

O=c1c(-c2ccc(O)c(O)c2)coc2c([C@@H]3O[C@H](CO)[C@@H](O)[C@H](O)[C@H]3O)c(O)ccc12 [Glucoside, 8-β-D-glucopyranosyl-7-hydroxy-3-(3′,4′-dihydroxyphenyl)-4H-1-benzopyran-4-one]
Laminin 5 yield (%) Relative to the Control [1]: 93% | Laminin 5 yield (%) Relative to the Control [2]: 95% | Laminin 5 yield (%) Relative to the Control [3]: 99%

C[C@H]1[C@H](C)CC[C@]2(C)CC[C@]3(C)C4=C(CC[C@@]3(C)[C@H]12)[C@@]1(C)CC[C@H](O)C(C)(C)C1CC4 (stereo partly drawn) [Isobauerenol, isobauerenol]
Laminin 5 yield (%) Relative to the Control (Table 2, concentration 1 μM): 132% | Laminin 5 yield (%) Relative to the Control (Table 2, concentration 10 μM): 137% | laminin 5 productivity potentiating action: exhibiting laminin 5 productivity potentiating action

C=C(C)[C@@H]1CC[C@]2(C)CC[C@]3(C)[C@H](CC[C@@H]4[C@@]5(C)CC[C@H](O)C(C)(C)[C@@H]5CC[C@]43C)[C@@H]12 [Lupeol, lupeol]
Laminin 5 yield (%) Relative to the Control (Table 2, concentration 0.1 μM): 122% | Laminin 5 yield (%) Relative to the Control (Table 2, concentration 1 μM): 154% | laminin 5 productivity potentiating action: exhibiting laminin 5 productivity potentiating action

O=c1c(-c2ccc(O)cc2)coc2c([C@@H]3O[C@H](CO)[C@@H](O)[C@H](O)[C@H]3O)c(O)ccc12 [Puerarin, daidzein-8-glucoside]
laminin 5 productivity potentiating action: little or no laminin 5 productivity potentiating action

O=c1c(-c2ccc(O)cc2)coc2cc(O[C@@H]3O[C@H](CO)[C@@H](O)[C@H](O)[C@H]3O)ccc12 [daidzin, daidzein-7-glucoside]
laminin 5 productivity potentiating action: little or no laminin 5 productivity potentiating action
